Reference: the NIST ThermoML archive (doi:10.1016/j.fluid.2014.03.004)
Numbers after ± are expanded uncertainties.

Details: 101.33 kPa, Liquid; for mass density: Vibrating tube method; for electrical conductivity: Alternating current cell with electrodes; for viscosity: Falling or rolling sphere viscometry

With `CCCCn1cc[n+](CCC(C)C)c1.O=S(=O)([N-]S(=O)(=O)C(F)(F)F)C(F)(F)F` the mass density (293.15 K) was 1322.37 ± 3.4 kg/m3, the electrical conductivity (298.15 K) was 0.145 ± 0.006 S/m and the viscosity (298.15 K) was 93 ± 3.6 mPa·s. It also gave a mass density (298.15 K) of 1318.1 ± 3.4 kg/m3, a viscosity (303.15 K) of 73.2 ± 2.6 mPa·s and a mass density (303.15 K) of 1313.65 ± 3.4 kg/m3. The electrical conductivity (303.16 K) was 0.182 ± 0.007 S/m, the electrical conductivity (313.15 K) was 0.273 ± 0.011 S/m and the viscosity (313.15 K) was 46.5 ± 1.6 mPa·s. It also gave a mass density (313.15 K) of 1304.82 ± 3.3 kg/m3, an electrical conductivity (323.15 K) of 0.389 ± 0.016 S/m and a viscosity (323.15 K) of 31.5 ± 1.1 mPa·s. For the same molecule, the mass density (323.15 K) was 1296.03 ± 3.3 kg/m3, the electrical conductivity (333.15 K) was 0.529 ± 0.021 S/m and the viscosity (333.15 K) was 22.4 ± 0.8 mPa·s. For the same molecule, the mass density (333.15 K) was 1287.3 ± 3.2 kg/m3, the electrical conductivity (343.15 K) was 0.694 ± 0.028 S/m and the mass density (343.15 K) was 1278.62 ± 3.2 kg/m3. The viscosity (353.15 K) was 12.6 ± 0.4 mPa·s, the mass density (353.15 K) was 1269.99 ± 3.1 kg/m3 and the electrical conductivity (353.16 K) was 0.883 ± 0.035 S/m.
`CCCC[n+]1ccn(C2CCCC2)c1.O=S(=O)([N-]S(=O)(=O)C(F)(F)F)C(F)(F)F` showed a mass density (293.15 K) of 1383.1 ± 3.7 kg/m3, an electrical conductivity (298.15 K) of 0.197 ± 0.008 S/m and a viscosity (298.15 K) of 85.1 ± 3.2 mPa·s. For the same molecule, the mass density (298.15 K) was 1378.52 ± 3.7 kg/m3, the viscosity (303.15 K) was 67.9 ± 2.4 mPa·s and the mass density (303.15 K) was 1373.96 ± 3.7 kg/m3. The electrical conductivity (303.16 K) was 0.246 ± 0.01 S/m, the electrical conductivity (313.15 K) was 0.361 ± 0.014 S/m and the viscosity (313.15 K) was 44.3 ± 1.5 mPa·s. For the same molecule, the mass density (313.15 K) was 1364.86 ± 3.6 kg/m3, the electrical conductivity (323.15 K) was 0.504 ± 0.02 S/m and the viscosity (323.15 K) was 30.8 ± 1.1 mPa·s. For the same molecule, the mass density (323.15 K) was 1355.84 ± 3.6 kg/m3, the electrical conductivity (333.15 K) was 0.668 ± 0.027 S/m and the viscosity (333.15 K) was 22.3 ± 0.8 mPa·s. For the same molecule, the mass density (333.15 K) was 1346.87 ± 3.5 kg/m3, the electrical conductivity (343.15 K) was 0.878 ± 0.035 S/m and the viscosity (343.15 K) was 16.7 ± 0.6 mPa·s. It also gave a mass density (343.15 K) of 1337.96 ± 3.5 kg/m3, an electrical conductivity (353.15 K) of 1.11 ± 0.045 S/m and a viscosity (353.15 K) of 13 ± 0.4 mPa·s. For the same molecule, the mass density (353.15 K) was 1329.11 ± 3.4 kg/m3.
With `CCCCC[n+]1ccn(CCCC)c1.O=S(=O)([N-]S(=O)(=O)C(F)(F)F)C(F)(F)F` the mass density (293.15 K) was 1322.07 ± 3.4 kg/m3, the electrical conductivity (298.15 K) was 0.164 ± 0.007 S/m and the viscosity (298.15 K) was 75.9 ± 2.7 mPa·s. The mass density (298.15 K) was 1317.6 ± 3.4 kg/m3, the viscosity (303.15 K) was 61.5 ± 2.1 mPa·s and the mass density (303.15 K) was 1313.16 ± 3.4 kg/m3. The electrical conductivity (303.16 K) was 0.205 ± 0.008 S/m, the electrical conductivity (313.15 K) was 0.303 ± 0.012 S/m and the viscosity (313.15 K) was 40.3 ± 1.4 mPa·s. For the same molecule, the mass density (313.15 K) was 1304.29 ± 3.3 kg/m3, the electrical conductivity (323.15 K) was 0.427 ± 0.017 S/m and the viscosity (323.15 K) was 28 ± 1 mPa·s. For the same molecule, the mass density (323.15 K) was 1295.48 ± 3.3 kg/m3, the electrical conductivity (333.15 K) was 0.58 ± 0.023 S/m and the viscosity (333.15 K) was 20.2 ± 0.7 mPa·s. It also gave a mass density (333.15 K) of 1286.72 ± 3.2 kg/m3, an electrical conductivity (343.15 K) of 0.757 ± 0.03 S/m and a mass density (343.15 K) of 1278.02 ± 3.2 kg/m3. The viscosity (353.15 K) was 11.6 ± 0.4 mPa·s, the mass density (353.15 K) was 1269.36 ± 3.1 kg/m3 and the electrical conductivity (353.16 K) was 0.96 ± 0.038 S/m.
